Experimental data published in ChEMBL document CHEMBL1268894, “Synthesis and biological evaluation of novel hygromycin A antibacterial agents” (Bioorg Med Chem Lett, 2010).
Converted amounts (≈) assume the structure as drawn.

Key:
Staphylococcus aureus [1] = test: Antimicrobial activity against Staphylococcus aureus 1146; assay type: functional
Streptococcus pyogenes [2] = test: Antimicrobial activity against Streptococcus pyogenes 2035; assay type: functional
Streptococcus pyogenes [3] = test: Antimicrobial activity against Streptococcus pyogenes 1079; assay type: functional
Staphylococcus aureus [4] = test: Antimicrobial activity against Staphylococcus aureus 1095; assay type: functional
Streptococcus pneumoniae [5] = test: Antimicrobial activity against Streptococcus pneumoniae 1095; assay type: functional
Streptococcus pneumoniae [6] = test: Antimicrobial activity against Streptococcus pneumoniae 1046; assay type: functional
[7] = Permeability across basolateral to apical side in human Caco-2 cells; assay type: ADME, cell-based; conditions: read-out: permeability
[8] = Permeability across apical to basolateral side in human Caco-2 cells; assay type: ADME, cell-based; conditions: read-out: permeability
[9] = Oral bioavailability in rat; assay type: ADME, organism-based; conditions: in vivo

Row | SMILES | MIC (Staphylococcus aureus [1]) [µg/mL] | MIC (Streptococcus pyogenes [2]) [µg/mL] | MIC (Streptococcus pyogenes [3]) [µg/mL] | MIC (Staphylococcus aureus [4]) [µg/mL] | MIC (Streptococcus pneumoniae [5]) [µg/mL] | MIC (Streptococcus pneumoniae [6]) [µg/mL] | Papp B→A [7] [×10⁻⁶ cm/s] | Papp A→B [8] [×10⁻⁶ cm/s] | bioavailability [9] [%]
1 | C/C(=C\c1cc(F)c(OCCCF)cc1F)C(=O)N[C@@H]1[C@H](O)[C@@H](O)[C@H]2OCO[C@H]2[C@@H]1OCC1CC1 | 4 (≈ 7.98 µM) | 1 (≈ 1.99 µM) | 0.5 (≈ 0.997 µM) | 4 (≈ 7.98 µM) | 1 (≈ 1.99 µM) | 0.5 (≈ 0.997 µM) | – | – | –
2 | CCCO[C@@H]1[C@@H](O)[C@H]2OCO[C@H]2[C@H](O)[C@@H]1NC(=O)/C(C)=C/c1cc(F)c(OCCCF)cc1F | > 64 | 64 (≈ 131 µM) | 32 (≈ 65.4 µM) | > 64 | 64 (≈ 131 µM) | 64 (≈ 131 µM) | – | – | –
3 | C/C(=C\c1cc(F)c(OCCCF)cc1F)C(=O)N[C@@H]1[C@H](O)[C@@H](O)[C@H]2OCO[C@H]2[C@@H]1OCC1CCOC1 (stereo partly drawn) | 2 (≈ 3.76 µM) | 1 (≈ 1.88 µM) | 0.25 (≈ 0.47 µM) | 4 (≈ 7.53 µM) | 1 (≈ 1.88 µM) | 0.5 (≈ 0.941 µM) | – | – | –
4 | CC(=O)[C@H]1O[C@@H](Oc2ccc(/C=C(\C)C(=O)N[C@@H]3[C@H](O)[C@@H](O)[C@H]4OCO[C@H]4[C@@H]3O)cc2O)[C@@H](O)[C@@H]1O [HYGROMYCIN A] | 25 (≈ 48.9 µM) | 6.25 (≈ 12.2 µM) | 6.25 (≈ 12.2 µM) | 50 (≈ 97.8 µM) | 12.5 (≈ 24.4 µM) | 12.5 (≈ 24.4 µM) | – | – | –
5 | CCCO[C@@H]1[C@H](NC(=O)/C(C)=C/c2cc(F)c(OCCCF)cc2F)[C@H](O)[C@@H](O)[C@H]2OCO[C@H]21 | 8 (≈ 16.3 µM) | 4 (≈ 8.17 µM) | 1 (≈ 2.04 µM) | 4 (≈ 8.17 µM) | 2 (≈ 4.09 µM) | 1 (≈ 2.04 µM) | – | – | –
6 | C/C(=C\c1cc(F)c(OCCCF)cc1F)C(=O)N[C@H]1[C@@H](O)[C@@H]2OCO[C@@H]2[C@H](O)[C@H]1OCCCF | 8 (≈ 15.8 µM) | 8 (≈ 15.8 µM) | 2 (≈ 3.94 µM) | 16 (≈ 31.5 µM) | 8 (≈ 15.8 µM) | 8 (≈ 15.8 µM) | – | – | –
7 | C/C(=C\c1cc(F)c(OCCCF)cc1F)C(=O)N[C@H]1[C@@H](O)[C@@H]2OCO[C@@H]2[C@H](O)[C@H]1OCC1CC1 | > 64 | > 64 | 32 (≈ 63.8 µM) | > 64 | > 64 | 64 (≈ 128 µM) | – | – | –
8 | C/C(=C\c1cc(F)c(OCCCF)cc1F)C(=O)N[C@@H]1[C@H](O)[C@@H](O)[C@H]2OCO[C@H]2[C@@H]1OCC#N | 1 (≈ 2.06 µM) | 0.5 (≈ 1.03 µM) | 0.25 (≈ 0.514 µM) | 2 (≈ 4.11 µM) | 1 (≈ 2.06 µM) | 0.5 (≈ 1.03 µM) | – | – | –
9 | C=CCOc1ccc(/C=C(\C)C(=O)N[C@@H]2[C@H](O)[C@@H](O)[C@H]3OCO[C@H]3[C@@H]2O)cc1O | 50 (≈ 123 µM) | 1.56 (≈ 3.83 µM) | 0.8 (≈ 1.96 µM) | 50 (≈ 123 µM) | 1.56 (≈ 3.83 µM) | 1.56 (≈ 3.83 µM) | – | – | –
10 | CO[C@@H]1[C@H](NC(=O)/C(C)=C/c2cc(F)c(OCCCF)cc2F)[C@H](O)[C@@H](O)[C@H]2OCO[C@H]21 | 3.13 (≈ 6.78 µM) | 1.56 (≈ 3.38 µM) | 1.56 (≈ 3.38 µM) | 6.25 (≈ 13.5 µM) | 1.56 (≈ 3.38 µM) | 0.78 (≈ 1.69 µM) | – | – | –
11 | C/C(=C\c1cc(F)c(OCCCF)cc1F)C(=O)N[C@@H]1[C@H](O)[C@@H](O)[C@H]2OCO[C@H]2[C@@H]1OCc1ccccc1C#N | 1 (≈ 1.78 µM) | 0.25 (≈ 0.444 µM) | < 0.0625 | 1 (≈ 1.78 µM) | < 0.0625 | < 0.0625 | 22 | 2.5 | –
12 | C/C(=C\c1cc(F)c(OCCCF)cc1F)C(=O)N[C@H]1[C@@H](O)[C@@H]2OCO[C@@H]2C[C@H]1O | 32 (≈ 74.2 µM) | 16 (≈ 37.1 µM) | 8 (≈ 18.5 µM) | 64 (≈ 148 µM) | 8 (≈ 18.5 µM) | 4 (≈ 9.27 µM) | – | – | –
13 | C/C(=C\c1cc(F)c(OCCCF)cc1F)C(=O)N[C@H]1C[C@@H]2OCO[C@@H]2[C@H](O)[C@H]1O | 8 (≈ 18.5 µM) | 4 (≈ 9.27 µM) | 8 (≈ 18.5 µM) | 16 (≈ 37.1 µM) | 8 (≈ 18.5 µM) | – | – | – | –
14 | CCO[C@@H]1[C@@H](O)[C@H]2OCO[C@H]2[C@H](O)[C@@H]1NC(=O)/C(C)=C/c1cc(F)c(OCCCF)cc1F | 8 (≈ 16.8 µM) | 1 (≈ 2.1 µM) | 2 (≈ 4.21 µM) | 8 (≈ 16.8 µM) | 8 (≈ 16.8 µM) | 2 (≈ 4.21 µM) | – | – | –
15 | CCO[C@@H]1[C@H](NC(=O)/C(C)=C/c2cc(F)c(OCCCF)cc2F)[C@H](O)[C@@H](O)[C@H]2OCO[C@H]21 | 8 (≈ 16.8 µM) | 4 (≈ 8.41 µM) | 1 (≈ 2.1 µM) | 8 (≈ 16.8 µM) | 4 (≈ 8.41 µM) | 1 (≈ 2.1 µM) | – | – | –
16 | C/C(=C\c1cc(F)c(OCCCF)cc1F)C(=O)N[C@@H]1[C@H](O)[C@@H](O)[C@H]2OCO[C@H]2[C@@H]1O | 4 (≈ 8.94 µM) | 2 (≈ 4.47 µM) | < 0.2 | 4 (≈ 8.94 µM) | 0.4 (≈ 0.894 µM) | 0.5 (≈ 1.12 µM) | 5.9 | 0.9 | 20
17 | C/C(=C\c1cc(F)c(OCCCF)cc1F)C(=O)N[C@@H]1[C@H](O)[C@@H](O)[C@H]2OCO[C@H]2[C@@H]1OCCCF | 1 (≈ 1.97 µM) | 0.5 (≈ 0.985 µM) | 0.125 (≈ 0.246 µM) | 2 (≈ 3.94 µM) | 0.25 (≈ 0.493 µM) | 0.25 (≈ 0.493 µM) | – | – | –
18 | CO[C@@H]1[C@@H](O)[C@@H](NC(=O)/C(C)=C/c2cc(F)c(OCCCF)cc2F)[C@@H](O)[C@@H]2OCO[C@H]12 | 100 (≈ 217 µM) | 100 (≈ 217 µM) | 50 (≈ 108 µM) | > 100 | 25 (≈ 54.2 µM) | 25 (≈ 54.2 µM) | – | – | –
19 | C/C(=C\c1cc(F)c(OCCCF)cc1F)C(=O)N[C@H]1[C@@H](O)[C@@H]2OCO[C@@H]2[C@H](O)[C@H]1OCc1ccccc1 | 64 (≈ 119 µM) | 64 (≈ 119 µM) | 32 (≈ 59.5 µM) | > 64 | 32 (≈ 59.5 µM) | 32 (≈ 59.5 µM) | 14 | 10 | –
20 | C/C(=C\c1cc(F)c(OCCCF)cc1F)C(=O)N[C@@H]1[C@H](O)[C@@H](O)[C@H]2OCO[C@H]2[C@@H]1OCc1ccccc1 | 16 (≈ 29.8 µM) | 16 (≈ 29.8 µM) | 2 (≈ 3.72 µM) | 16 (≈ 29.8 µM) | 8 (≈ 14.9 µM) | 4 (≈ 7.44 µM) | – | – | –
21 | COCCCO[C@@H]1[C@H](NC(=O)/C(C)=C/c2cc(F)c(OCCCF)cc2F)[C@H](O)[C@@H](O)[C@H]2OCO[C@H]21 | 16 (≈ 30.8 µM) | 2 (≈ 3.85 µM) | 2 (≈ 3.85 µM) | 16 (≈ 30.8 µM) | 4 (≈ 7.7 µM) | 4 (≈ 7.7 µM) | – | – | 90
